Reference: ChEMBL document CHEMBL6120996, “Discovery and optimization of 1,2,4-triazole derivatives as novel ferroptosis inhibitors” (Eur J Med Chem, 2025)
Values belong to the compound of their own block, whether it stands above or below them. Active and inactive are the calls of the source. No cut-off for these calls is given here.

How the values were obtained:
[1] = Microsomal stability in human liver microsomes assessed as hepatic extraction ratio at 0.1 uM by LC-MS/MS analysis; type: ADME, Microsome; settings: read-out: ERH
786-0 [2] = test: Effect on FTL expression in human 786-0 cells at 1 uM incubated for 2.5 hrs by western blot analysis; type: functional, cell-based
Mus musculus [3] = test: Anti-ferroptotic activity in ConA-induced C57 mouse liver injury model assessed as reduction in AST levels in serum at 10 mg/kg, ip pre-treated 1 day followed by challenged with ConA measured after 24 hrs; type: functional, organism-based
786-0 [4] = test: Effect on SLC7A11 expression in human 786-0 cells at 1 uM incubated for 2.5 hrs by Western blot analysis; type: functional, cell-based
786-0 [5] = test: Effect on erastin-induced decrease in GSH level in human 786-0 cells at 1 uM incubated for 10 hrs by Total intracellular GSH assay; type: functional, cell-based
Mus musculus [6] = test: Anti-ferroptotic activity in ConA-induced C57 mouse acute liver injury model assessed as reduction in malondialdehyde levels at 10 mg/kg, ip pre-administered one day followed by treated with ConA measured after 24 hrs by MDA kit assay; type: functional, organism-based; settings: time 48.0 hrs
786-0 [7] = test: Effect on FTH1 expression in human 786-0 cells at 1 uM incubated for 2.5 hrs by western blot analysis; type: functional, cell-based
786-0 [8] = test: Inhibition of RSL3-induced ferroptosis in human 786-0 cells assessed as cell viability by assessing cell morphology incubated for 24 hrs by CellTiter-LumiTM plus luminescent cell viability assay; type: functional, cell-based; settings: 786-0, 24 h
786-0 [9] = test: Effect on IRP1 expression in human 786-0 cells at 1 uM incubated for 2.5 hrs by western blot analysis; type: functional, cell-based
786-0 [10] = test: Effect on ACSL4 expression in human 786-0 cells at 1 uM incubated for 2.5 hrs by Western blot analysis; type: functional, cell-based
786-0 [11] = test: Inhibition of RSL3 induced lipid-ROS accumulation in human 786-0 cells assessed as fast elimination at 1 uM measured after 0.25 to 2.5 hrs by C11-BODIPY 581/591 staining coupled with flow cytometry analysis; type: functional, cell-based; settings: time 0.25-2.5 hrs
786-0 [12] = test: Cytotoxicity against human 786-0 cells assessed as cell viability incubated for 24 hrs by CellTiter-LumiTM assay; type: functional
[13] = Inhibition of RSL3 induced ferroptosis in human HT-1080 cells assessed as cell viability incubated for 24 hrs by CellTiter-LumiTM assay; type: functional, cell-based; settings: HT-1080, 24 h
786-0 [14] = test: Effect on GPX4 expression in human 786-0 cells at 1 uM incubated for 2.5 hrs by Western blot analysis; type: functional, cell-based
786-0 [15] = test: Effect on IRP1 expression in human 786-0 cells in presence of 0.25 uM RSL3 at 1 uM incubated for 2.5 hrs by Western blot analysis; type: functional, cell-based
[16] = Antioxidant activity assessed as free radical scavenging activity incubated for 30 mins in dark by DPPH assay relative to control; type: functional
[17] = Microsomal stability in human liver microsomes assessed as hepatic clearance at 0.1 uM by LC-MS/MS analysis; type: ADME, Microsome
[18] = Microsomal stability in rat liver microsomes assessed as hepatic clearance at 0.1 uM by LC-MS/MS analysis; type: ADME, Microsome
786-0 [19] = test: Inhibition of RSL3-induced ferroptosis in human 786-0 cells assessed as cell viability incubated for 24 hrs by CellTiter-LumiTM assay; type: functional, cell-based; settings: 786-0, 24 h
[20] = Inhibition of RSL3 induced ferroptosis in human MHCC97H cells assessed as cell viability incubated for 24 hrs by CellTiter-LumiTM assay; type: functional, cell-based
[21] = Suppression of autoxidation of liposomes egg ( unknown origin) phosphatidylcholine lipids as substrate at 0.1 to 2.5 uM incubated for 5 min by C11-BODIPY 581/591 dye based fluorescent assay; type: functional; settings: dose 0.1-2.5 µM
[22] = Microsomal stability in rat liver microsomes assessed as half life at 0.1 uM by LC-MS/MS analysis; type: ADME, Microsome
786-0 [23] = test: Inhibition of H2O2 induced necrosis in human 786-0 cells assessed as cell viability at 1 uM incubated for 24 hrs by CellTiter-LumiTM assay; type: functional, cell-based
[24] = Inhibition of RSL3 induced ferroptosis in human SK-HEP1 cells assessed as cell viability incubated for 24 hrs by CellTiter-LumiTM assay; type: functional, cell-based; settings: SK-HEP1, 24 h
786-0 [25] = test: Effect on TFRC expression in human 786-0 cells in presence of 0.25 uM RSL3 at 1 uM incubated for 2.5 hrs by Western blot analysis; type: functional, cell-based
[26] = Metabolic stability in human plasma assessed as half life at 1 uM by LC-MS/MS analysis; type: ADME, cell-free
786-0 [27] = test: Inhibition of STS induced apoptosis in human 786-0 cells assessed as cell viability at 1 uM incubated for 24 hrs by CellTiter-LumiTM assay; type: functional, cell-based
[28] = Metabolic stability in rat plasma assessed as half life at 1 uM by LC-MS/MS analysis; type: ADME, cell-free
[29] = Metal chelating activity assessed as Fe2+ chelation assessed as absorbance peak at 430 nm by UV-vis spectroscopy; settings: dose 1.0 µM
786-0 [30] = test: Effect on FTL expression in human 786-0 cells in presence of 0.25 uM RSL3 at 1 uM incubated for 2.5 hrs by Western blot analysis; type: functional, cell-based
786-0 [31] = test: Inhibition of RSL3 induced ferroptosis in human 786-0 cells assessed as cell viability in presence of iFSP1 at 1 uM measured after 24 hrs by CellTiter-LumiTM assay; type: functional, cell-based
Mus musculus [32] = test: Anti-ferroptotic activity in ConA-induced C57 mouse acute liver injury model assessed as assessed as reduction in PTGS2 mRNA levels in liver tissue at 10 mg/kg, ip pre-administered one day followed by treated with ConA measured after 24 hrs by qRT-PCR analysis; type: functional, organism-based; settings: time 48.0 hrs
[33] = Microsomal stability in rat liver microsomes assessed as hepatic extraction ratio at 0.1 uM by LC-MS/MS analysis; type: ADME, Microsome; settings: read-out: ERH
Mus musculus [34] = test: Anti-ferroptotic activity in ConA-induced C57 mouse liver injury model assessed as reduction in ALT levels in serum at 10 mg/kg, ip pre-treated 1 day followed by treated with ConA measured after 24 hrs; type: functional, organism-based; settings: time 2.0 day
HT-1080 = test: Anti-ferroptotic activity in human GPX4 knockout HT-1080 cells assessed as cell viability at 1 uM incubated for 24 hrs by CellTiter-LumiTM plus luminescent cell viability assay; type: functional, cell-based
Mus musculus [35] = test: Anti-ferroptotic activity in ConA-induced C57 mouse liver injury model assessed as decrease in acute liver injury at 10 mg/kg, ip pre-administered one day followed by treated with ConA measured after 24 hrs by HE staining based analysis; type: functional, organism-based; settings: time 48.0 hrs
Mus musculus [36] = test: Anti-ferroptotic activity in ConA-induced C57 mouse acute liver injury model assessed as assessed as reduction in 4-HNE accumulation in liver tissue at 10 mg/kg, ip pre-administered one day followed by treated with ConA measured after 24 hrs by 4-HNE staining based analysis; type: functional, organism-based; settings: time 48.0 hrs
786-0 [37] = test: Inhibition of RSL3-induced ferroptosis in human 786-0 cells assessed as cell protection by assessing cell morphology at 1 uM incubated for 24 hrs; type: functional, cell-based
[38] = Microsomal stability in human liver microsomes assessed as half life at 0.1 uM by LC-MS/MS analysis; type: ADME, Microsome
786-0 [39] = test: Effect on TFRC expression in human 786-0 cells at 1 uM incubated for 2.5 hrs by Western blot analysis; type: functional, cell-based
SK-HEP1 [40] = test: Inhibition of RSL3 induced lipid-ROS accumulation in human SK-HEP1 cells at 1 uM incubated for 0.5 hrs by C11-BODIPY 581/591 staining coupled with flow cytometry analysis; type: functional, cell-based
786-0 [41] = test: Metal chelating activity assessed as Fe2+ chelation in human 786-0 cells assessed as intracellular ferrous ion level at 1 uM by FerroOrange fluorescent probe based assay; type: cell-based
[42] = Inhibition of RSL3 induced ferroptosis in H9c2 cells assessed as cell viability incubated for 24 hrs by CellTiter-LumiTM assay; type: functional, cell-based; settings: Rattus norvegicus, H9c2, 24 h
SK-HEP1 [43] = test: Inhibition of RSL3 induced lipid-ROS accumulation in human SK-HEP1 cells at 1 uM incubated for 2.5 hrs by C11-BODIPY 581/591 staining coupled with flow cytometry analysis; type: functional, cell-based
786-0 [44] = test: Inhibition of RSL3 induced lipid-ROS accumulation in human 786-0 cells incubated for 2.5 hrs by C11-BODIPY 581/591 staining coupled with flow cytometry analysis; type: functional, cell-based; settings: dose 0.1-1 µM
786-0 [45] = test: Effect on FTH1 expression in human 786-0 cells in presence of 0.25 uM RSL3 at 1 uM incubated for 2.5 hrs by Western blot analysis; type: functional, cell-based
[46] = Inhibition of erastin induced ferroptosis in human 786-0 cells assessed as cell viability incubated for 24 hrs by CellTiter-LumiTM assay; type: functional, cell-based; settings: 786-0, 24 h

hepatic extraction ratio at 0.1 µM [1]: 0.986
EC50 (786-0 [8]): 62 nM
CLhep predicted at 0.1 µM [17]: 20.4 mL/min/kg
CLhep predicted at 0.1 µM [18]: 54.5 mL/min/kg
EC50 (786-0 [19]): 60 nM
half-life at 0.1 µM ([22]; liver microsomes): 2.87 min
half-life at 1 µM [26]: 33.7 h
half-life at 1 µM [28]: 6.58 h
Activity [29]: inactive
hepatic extraction ratio at 0.1 µM [33]: 0.987
half-life at 0.1 µM ([38]; liver microsomes): 5.74 min
Compound: COc1cccc(C2N(c3ccccc3)N=C(C(C)=O)N2c2ccc(N(C)C)cc2)c1OCc1ccc(F)c(F)c1 (stereo not given)
Activity (786-0 [2]): No effect
Activity (Mus musculus [3]): Active
Activity (786-0 [4]): No effect
Activity (786-0 [5]): inactive
Activity (Mus musculus [6]): Active
Activity (786-0 [7]): No effect
Activity (786-0 [9]): No effect
Activity (786-0 [10]): No effect
inhibition (786-0 [11]): Active; Eliminated As Fast As Fer-1
CC50 (786-0 [12]): > 40000 nM
EC50 [13]: 186 nM
Activity (786-0 [14]): No effect
Activity (786-0 [15]): inactive
Activity [16]: Active
EC50 [20]: 288 nM
Activity [21]: Dose-dependent-effect
inhibition (786-0 [23]): inactive
EC50 [24]: 134 nM
Activity (786-0 [25]): inactive
inhibition (786-0 [27]): inactive
Activity (786-0 [30]): inactive
inhibition (786-0 [31]): Active
Activity (Mus musculus [32]): Active
Activity (Mus musculus [34]): Active
Activity (HT-1080): Active
Activity (Mus musculus [35]): Active
Activity (Mus musculus [36]): Active
Activity (786-0 [37]): Active
Activity (786-0 [39]): No effect
inhibition (SK-HEP1 [40]): Active
Activity (786-0 [41]): inactive
EC50 [42]: 122 nM
inhibition (SK-HEP1 [43]): Active
inhibition (786-0 [44]): Dose-dependent-effect
Activity (786-0 [45]): inactive
EC50 [46]: 44 nM

hepatic extraction ratio at 0.1 µM [1]: 0.99
EC50 (786-0 [8]): 84 nM
EC50 (786-0 [19]): 80 nM
t1/2 ([22]; microsomes, 0.1 µM): 1.66 min
half-life at 1 µM [26]: 23.9 h
half-life at 1 µM [28]: 4.97 h
hepatic extraction ratio at 0.1 µM [33]: 0.993
t1/2 ([38]; microsomes, 0.1 µM): 4.02 min
Compound: COc1ccc(COc2c(OC)cccc2C2N(c3ccccc3)N=C(C(C)=O)N2c2ccc(N(C)C)cc2)cc1 (stereo not given)
Activity (786-0 [2]): No effect
Activity (Mus musculus [3]): Active
Activity (786-0 [4]): No effect
Activity (786-0 [5]): inactive
Activity (Mus musculus [6]): Active
Activity (786-0 [7]): No effect
Activity (786-0 [9]): No effect
Activity (786-0 [10]): No effect
inhibition (786-0 [11]): Active; Eliminated As Fast As Fer-1
CC50 (786-0 [12]): > 10000 nM
EC50 [13]: 74 nM
Activity (786-0 [14]): No effect
Activity (786-0 [15]): inactive
Activity [16]: Active
EC50 [20]: 349 nM
Activity [21]: Dose-dependent-effect
inhibition (786-0 [23]): inactive
EC50 [24]: 164 nM
Activity (786-0 [25]): inactive
inhibition (786-0 [27]): inactive
Activity (786-0 [30]): inactive
inhibition (786-0 [31]): Active
Activity (Mus musculus [32]): Active
Activity (Mus musculus [34]): Active
Activity (HT-1080): Active
Activity (Mus musculus [35]): Active
Activity (Mus musculus [36]): Active
Activity (786-0 [39]): No effect
inhibition (SK-HEP1 [40]): Active
Activity (786-0 [41]): inactive
EC50 [42]: 142 nM
inhibition (SK-HEP1 [43]): Active
inhibition (786-0 [44]): Dose-dependent-effect
Activity (786-0 [45]): inactive
EC50 [46]: 54 nM
